Measurements published in ChEMBL document CHEMBL1149117, “Synthesis and monoamine transporter binding of 2-(diarylmethoxymethyl)-3 beta-aryltropane derivatives” (J Med Chem, 2004).

Key:
[1] = target: Sodium-dependent dopamine transporter (Rattus norvegicus, UniProt P23977); test: Binding affinity against dopamine transporter by using [3H]WIN-35428 as a radioligand
[2] = target: T1, Muscarinic acetylcholine receptor M1 (Rattus norvegicus, UniProt P08482); test: Binding affinity against Muscarinic acetylcholine receptor M1 by using [3H]pirenzepine as a radioligand
T1 sequence (P08482 whole entry): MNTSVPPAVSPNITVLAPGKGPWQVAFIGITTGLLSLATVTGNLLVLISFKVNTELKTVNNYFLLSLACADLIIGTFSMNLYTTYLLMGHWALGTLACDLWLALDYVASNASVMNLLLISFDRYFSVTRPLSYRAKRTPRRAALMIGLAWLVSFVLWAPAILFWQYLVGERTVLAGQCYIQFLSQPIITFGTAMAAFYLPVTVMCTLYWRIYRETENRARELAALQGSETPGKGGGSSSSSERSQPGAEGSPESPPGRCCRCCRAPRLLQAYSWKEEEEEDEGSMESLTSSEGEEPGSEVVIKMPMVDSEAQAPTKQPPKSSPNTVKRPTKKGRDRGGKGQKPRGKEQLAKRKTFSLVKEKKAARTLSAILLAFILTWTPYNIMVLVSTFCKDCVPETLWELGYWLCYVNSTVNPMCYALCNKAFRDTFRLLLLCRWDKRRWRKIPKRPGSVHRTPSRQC

[3] = target: Sodium-dependent serotonin transporter (Rattus norvegicus, UniProt P31652); test: Binding affinity against serotonin transporter by using [3H]-citalopram as a radioligand
[4] = target: Norepinephrine transporter (Rattus norvegicus, UniProt Q9WTR4); test: Binding affinity against norepinephrine transporter by using [3H]nisoxetine as a radioligand
Sequence of Norepinephrine transporter (Q9WTR4 whole entry): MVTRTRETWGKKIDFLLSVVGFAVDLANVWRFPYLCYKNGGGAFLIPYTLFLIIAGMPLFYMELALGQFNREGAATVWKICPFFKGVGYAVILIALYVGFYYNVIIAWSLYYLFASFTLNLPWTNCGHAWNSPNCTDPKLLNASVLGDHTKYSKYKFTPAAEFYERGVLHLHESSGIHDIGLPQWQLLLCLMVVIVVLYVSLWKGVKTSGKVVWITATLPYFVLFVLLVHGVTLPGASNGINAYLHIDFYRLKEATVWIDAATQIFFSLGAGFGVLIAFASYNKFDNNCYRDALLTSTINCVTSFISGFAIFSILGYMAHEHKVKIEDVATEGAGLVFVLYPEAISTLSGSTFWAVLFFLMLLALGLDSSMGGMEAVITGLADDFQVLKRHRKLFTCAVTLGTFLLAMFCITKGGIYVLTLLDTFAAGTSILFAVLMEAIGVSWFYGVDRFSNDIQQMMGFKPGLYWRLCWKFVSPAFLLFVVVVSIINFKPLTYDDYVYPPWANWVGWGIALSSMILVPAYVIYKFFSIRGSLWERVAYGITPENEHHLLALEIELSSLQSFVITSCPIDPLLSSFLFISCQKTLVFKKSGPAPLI

Sequence of Sodium-dependent serotonin transporter (P31652 whole entry): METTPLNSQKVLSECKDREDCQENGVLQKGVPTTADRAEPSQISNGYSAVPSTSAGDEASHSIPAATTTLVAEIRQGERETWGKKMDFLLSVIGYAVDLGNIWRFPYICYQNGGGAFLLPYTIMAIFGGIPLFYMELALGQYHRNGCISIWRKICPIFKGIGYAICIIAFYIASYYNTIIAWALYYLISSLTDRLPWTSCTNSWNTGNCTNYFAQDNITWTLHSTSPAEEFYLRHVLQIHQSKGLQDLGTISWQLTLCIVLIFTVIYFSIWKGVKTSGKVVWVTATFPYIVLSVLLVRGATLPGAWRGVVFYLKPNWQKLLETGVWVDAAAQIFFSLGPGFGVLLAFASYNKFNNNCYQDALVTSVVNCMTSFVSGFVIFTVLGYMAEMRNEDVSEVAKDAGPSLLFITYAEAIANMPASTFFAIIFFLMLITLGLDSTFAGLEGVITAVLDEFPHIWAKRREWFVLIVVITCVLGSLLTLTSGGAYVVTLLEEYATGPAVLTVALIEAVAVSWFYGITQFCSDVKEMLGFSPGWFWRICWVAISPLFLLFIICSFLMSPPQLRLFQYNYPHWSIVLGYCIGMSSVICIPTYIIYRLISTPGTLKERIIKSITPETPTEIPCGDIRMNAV
Sequence of Sodium-dependent dopamine transporter (P23977 whole entry): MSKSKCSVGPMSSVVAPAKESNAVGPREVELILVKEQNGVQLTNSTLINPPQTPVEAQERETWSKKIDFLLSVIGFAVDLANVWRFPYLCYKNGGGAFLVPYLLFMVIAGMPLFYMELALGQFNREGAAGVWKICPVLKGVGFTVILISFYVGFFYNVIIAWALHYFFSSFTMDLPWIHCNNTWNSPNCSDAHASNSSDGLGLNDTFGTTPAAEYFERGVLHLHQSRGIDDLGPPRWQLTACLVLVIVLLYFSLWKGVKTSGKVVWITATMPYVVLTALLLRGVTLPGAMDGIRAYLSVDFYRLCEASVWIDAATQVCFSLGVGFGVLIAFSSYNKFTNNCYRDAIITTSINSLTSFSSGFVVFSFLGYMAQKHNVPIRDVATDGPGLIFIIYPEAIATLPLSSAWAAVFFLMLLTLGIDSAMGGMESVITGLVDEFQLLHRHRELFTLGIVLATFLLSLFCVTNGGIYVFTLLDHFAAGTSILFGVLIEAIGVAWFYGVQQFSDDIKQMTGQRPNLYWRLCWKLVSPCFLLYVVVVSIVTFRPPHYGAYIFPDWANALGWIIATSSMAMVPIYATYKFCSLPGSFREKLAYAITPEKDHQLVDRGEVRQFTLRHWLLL

Row | SMILES | Ki [1] | Ki [2] | Ki [3] | Ki [4]
1 | CN1C2CCC1C(CCCOC(c1ccccc1)c1ccc(Cl)cc1)C(c1ccccc1)C2 (centres undefined) | 0.261 µM | 24.6 µM | 0.045 µM | 
2 | CN1C2CCC1[C@@H](COC(c1ccccc1)c1ccc(Cl)cc1)C(c1ccc(F)cc1)C2 (some centres undefined) | 0.112 µM |  |  | 
3 | Cc1ccc(C2CC3CCC([C@H]2COC(c2ccccc2)c2ccc(Cl)cc2)N3C)cc1 (some centres undefined) | 0.08 µM | 31.6 µM | 0.443 µM | 4.4 µM
4 | CN1C2CCC1[C@@H](COC(c1ccc(F)cc1)c1ccc(F)cc1)C(c1ccc(F)cc1)C2 (some centres undefined) | 0.063 µM |  |  | 
5 | Cc1ccc(C2CC3CCC([C@@H]2COC(c2ccc(F)cc2)c2ccc(F)cc2)N3C)cc1 (some centres undefined) | 0.69 µM | 9.7 µM | 0.786 µM | 16 µM
6 | CN1C2CCC1C(CCCOC(c1ccc(F)cc1)c1ccc(F)cc1)C(c1ccccc1)C2 (centres undefined) | 0.06 µM |  |  | 
7 | CN1C2CCC1[C@H](COC(c1ccccc1)c1ccc(Cl)cc1)C(c1ccc(Cl)cc1)C2 (some centres undefined) | 0.553 µM | 9.6 µM | 1.29 µM | 5.6 µM
8 | Cc1ccc(C2CC3CCC([C@@H]2COC(c2ccccc2)c2ccccc2)N3C)cc1 (some centres undefined) | 0.455 µM | 12.6 µM | 0.53 µM | 2.61 µM
9 | Cc1ccc(C2CC3CCC([C@H]2COC(c2ccccc2)c2ccccc2)N3C)cc1 (some centres undefined) | 0.034 µM | 10.6 µM | 0.121 µM | 0.684 µM
10 | CN1C2CCC1[C@@H](COC(c1ccccc1)c1ccccc1)C(c1ccc(F)cc1)C2 (some centres undefined) | 0.049 µM |  |  | 
11 | Cc1ccc(C2CC3CCC([C@@H]2COC(c2ccccc2)c2ccc(Cl)cc2)N3C)cc1 (some centres undefined) | 0.937 µM | 18.2 µM | 1 µM | 22.5 µM
12 | Cc1ccc(C2CC3CCC([C@H]2COC(c2ccc(F)cc2)c2ccc(F)cc2)N3C)cc1 (some centres undefined) | 0.062 µM | 15.5 µM | 0.233 µM | 1.83 µM
13 | CN1C2CCC1C(CCCOC(c1ccccc1)c1ccccc1)C(c1ccccc1)C2 (centres undefined) | 0.139 µM | 7.97 µM | 0.061 µM | 0.207 µM
14 | CN1C2CCC1[C@@H](COC(c1ccccc1)c1ccccc1)C(c1ccc(Cl)cc1)C2 (some centres undefined) | 0.052 µM | 11 µM | 0.147 µM | 1.19 µM
15 | CN1C2CCC1[C@H](COC(c1ccc(F)cc1)c1ccc(F)cc1)C(c1ccc(Cl)cc1)C2 (some centres undefined) | 0.25 µM | 9.93 µM | 0.724 µM | 52.3 µM
16 | CN1C2CCC1[C@@H](COC(c1ccc(F)cc1)c1ccc(F)cc1)C(c1ccc(Cl)cc1)C2 (some centres undefined) | 0.099 µM | 16.3 µM | 0.245 µM | 2.89 µM
17 | CN1C2CCC1[C@H](COC(c1ccccc1)c1ccccc1)C(c1ccc(Cl)cc1)C2 (some centres undefined) | 0.478 µM | 11.5 µM | 0.408 µM | 4 µM
18 | CN1C2CCC1[C@@H](COC(c1ccccc1)c1ccc(Cl)cc1)C(c1ccc(Cl)cc1)C2 (some centres undefined) | 0.076 µM | 39.9 µM | 0.462 µM | 2.06 µM
